Measured values published in US9302999B2, “Substituted triazoles as herbicides” (E. I. DU PONT DE NEMOURS AND COMPANY, priority 2012, dated 2016).

Key:
Type in all cases: in vivo
[1] = test system: barnyardgrass (Echinochloa crus-galli); assay: Test C flooded paddy test: barnyardgrass; settings: scale 0 to 100 (0 no effect, 100 complete control)
How it was run: (§1)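 Plants were grown to the 2-leaf stage, pots flooded to 3 cm above soil, and test compounds applied directly to the paddy water, with that depth held throughout. After 13 to 15 days in a greenhouse, injury was visually rated against controls on a 0 (no effect) to 100 (complete control) scale.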

corn (Zea mays) = assay: Test A pre-/postemergence: corn
How it was run: (§2)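 Pre: directed soil spray after planting in loam + sand. Post: same formulation (non-phytotoxic solvent + surfactant) on 1–2-leaf plants, 2–10 cm. Greenhouse ~10 d; visual injury 0–100 vs untreated.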

[2] = test system: sedge, umbrella (small-flower umbrella sedge, Cyperus difformis); assay: Test C flooded paddy test: sedge, umbrella; settings: scale 0 to 100 (0 no effect, 100 complete control)
How it was run: as §1

rice (Oryza sativa) = assay: Test C flooded paddy test: rice; settings: scale 0 to 100 (0 no effect, 100 complete control)
How it was run: as §1

[3] = test system: velvetleaf (Abutilon theophrasti); assay: Test A pre-/postemergence: velvetleaf
How it was run: as §2

[4] = test system: wheat (Triticum aestivum); assay: Test A pre-/postemergence: wheat
How it was run: as §2

[5] = test system: ducksalad (Heteranthera limosa); assay: Test C flooded paddy test: ducksalad; settings: scale 0 to 100 (0 no effect, 100 complete control)
How it was run: as §1

[6] = test system: crabgrass, large (large crabgrass, Digitaria sanguinalis); assay: Test A pre-/postemergence: crabgrass, large
How it was run: as §2

[7] = test system: foxtail, giant (giant foxtail, Setaria faberii); assay: Test A pre-/postemergence: foxtail, giant
How it was run: as §2

[8] = test system: pigweed (Amaranthus retroflexus); assay: Test A pre-/postemergence: pigweed
How it was run: as §2

[9] = test system: barnyardgrass (Echinochloa crus-galli); assay: Test A pre-/postemergence: barnyardgrass
How it was run: as §2

[10] = test system: morningglory (Ipomoea spp.); assay: Test A pre-/postemergence: morningglory
How it was run: as §2

[11] = Flood (flooded paddy test), 62 g ai/ha, visual rating after 13 to 15 days
[12] = Flood (flooded paddy test), 125 g ai/ha, visual rating after 13 to 15 days
[13] = Flood (flooded paddy test), 250 g ai/ha, visual rating after 13 to 15 days
[14] = Postemergence, 125 g ai/ha, 0 to 100 scale, 0 is no effect, 100 is complete control
[15] = Postemergence, 500 g ai/ha, visual rating on 0 to 100 scale (0 no effect, 100 complete control), approximately ten days
[16] = Preemergence, 125 g ai/ha, 0 to 100 scale (0 no effect, 100 complete control)
[17] = Preemergence, 500 g ai/ha, 0 to 100 scale, 0 is no effect, 100 is complete control
[18] = Postemergence, 1000 g ai/ha, visual rating on 0 to 100 scale (0 no effect, 100 complete control), approximately ten days
[19] = Preemergence, 1000 g ai/ha, 0 to 100 scale, 0 is no effect, 100 is complete control

`Cc1nn(-c2cccc(C(F)(F)F)c2)nc1Oc1cc(C(F)(F)F)nn1C` [Compound 64] was tested, and the “Plant response rating, Barnyardgrass” value [1, 11] was 0, the “Plant response rating, Barnyardgrass” value [1, 12] was 0 and the “Plant response rating, Barnyardgrass” value [1, 13] was 0. The “Plant response rating, Barnyardgrass” value ([1]; Flood, 31 g ai/ha) was 0, the “Corn plant response rating” value (corn (Zea mays); [14]) was 0 and the “Corn plant response rating” value (corn (Zea mays); [15]) was 0. For the same compound, the “Plant response rating, Corn” value (corn (Zea mays); [16]) was 0, the “Plant response rating, Corn” value (corn (Zea mays); [17]) was 0 and the “Plant response rating, Sedge, Umbrella” value [2, 11] was 0. The “Plant response rating, Sedge, Umbrella” value [2, 12] was 0, the “Plant response rating, Sedge, Umbrella” value [2, 13] was 0 and the “Plant response rating, Sedge, Umbrella” value ([2]; Flood, 31 g ai/ha) was 0. For the same compound, the “Plant response rating, Rice” value (rice (Oryza sativa); [11]) was 0, the “Plant response rating, Rice” value (rice (Oryza sativa); [12]) was 0 and the “Plant response rating, Rice” value (rice (Oryza sativa); [13]) was 0. For the same compound, the “Plant response rating, Rice” value (rice (Oryza sativa); Flood, 31 g ai/ha) was 0, the “Velvetleaf plant response rating” value [3, 14] was 0 and the “Velvetleaf plant response rating” value [3, 15] was 0. For the same compound, the “Plant response rating, Velvetleaf” value [3, 16] was 0, the “Plant response rating, Velvetleaf” value [3, 17] was 0 and the “Wheat plant response rating” value [4, 14] was 0. The “Wheat plant response rating” value [4, 15] was 0, the “Plant response rating, Wheat” value [4, 16] was 0 and the “Plant response rating, Wheat” value [4, 17] was 0. For the same compound, the “Plant response rating, Ducksalad” value [5, 11] was 0, the “Plant response rating, Ducksalad” value [5, 12] was 0 and the “Plant response rating, Ducksalad” value [5, 13] was 0. The “Plant response rating, Ducksalad” value ([5]; Flood, 31 g ai/ha) was 0, the “Crabgrass, Large plant response rating” value [6, 14] was 0 and the “Crabgrass, Large plant response rating” value [6, 15] was 0. The “Plant response rating, Crabgrass, Large” value [6, 16] was 0, the “Plant response rating, Crabgrass, Large” value [6, 17] was 0 and the “Foxtail, Giant plant response rating” value [7, 14] was 0. For the same compound, the “Foxtail, Giant plant response rating” value [7, 15] was 0, the “Plant response rating, Foxtail, Giant” value [7, 16] was 0 and the “Plant response rating, Foxtail, Giant” value [7, 17] was 0. The “Pigweed plant response rating” value [8, 14] was 0, the “Pigweed plant response rating” value [8, 15] was 0 and the “Plant response rating, Pigweed” value [8, 16] was 0. For the same compound, the “Plant response rating, Pigweed” value [8, 17] was 0, the “Barnyardgrass plant response rating” value [9, 14] was 0 and the “Barnyardgrass plant response rating” value [9, 15] was 0. The “Plant response rating, Barnyardgrass” value [9, 16] was 0, the “Plant response rating, Barnyardgrass” value [9, 17] was 0 and the “Morningglory plant response rating” value [10, 14] was 0. The “Morningglory plant response rating” value [10, 15] was 0, the “Plant response rating, Morningglory” value [10, 16] was 0 and the “Plant response rating, Morningglory” value [10, 17] was 0.
With `Cc1nn(-c2ccc(C(F)(F)F)cc2)nc1Cn1ccc(C(F)(F)F)n1` [Compound 117] the “Plant response rating, Barnyardgrass” value [1, 12] was 65, the “Plant response rating, Barnyardgrass” value [1, 13] was 80 and the “Plant response rating, Barnyardgrass” value ([1]; Flood, 31 g ai/ha) was 50. The “Plant response rating, Barnyardgrass” value ([1]; Flood, 62 g ai/ha) was 60, the “Corn plant response rating” value (corn (Zea mays); [18]) was 40 and the “Corn plant response rating” value (corn (Zea mays); [19]) was 50. The “Plant response rating, Sedge, Umbrella” value [2, 12] was 75, the “Plant response rating, Sedge, Umbrella” value [2, 13] was 85 and the “Plant response rating, Sedge, Umbrella” value ([2]; Flood, 31 g ai/ha) was 65. For the same compound, the “Plant response rating, Sedge, Umbrella” value ([2]; Flood, 62 g ai/ha) was 70, the “Plant response rating, Rice” value (rice (Oryza sativa); [12]) was 25 and the “Plant response rating, Rice” value (rice (Oryza sativa); [13]) was 40. The “Plant response rating, Rice” value (rice (Oryza sativa); Flood, 31 g ai/ha) was 15, the “Plant response rating, Rice” value (rice (Oryza sativa); Flood, 62 g ai/ha) was 15 and the “Velvetleaf plant response rating” value [3, 18] was 100. The “Velvetleaf plant response rating” value [3, 19] was 30, the “Wheat plant response rating” value [4, 18] was 20 and the “Wheat plant response rating” value [4, 19] was 10. For the same compound, the “Plant response rating, Ducksalad” value [5, 12] was 80, the “Plant response rating, Ducksalad” value [5, 13] was 85 and the “Plant response rating, Ducksalad” value ([5]; Flood, 31 g ai/ha) was 30. For the same compound, the “Plant response rating, Ducksalad” value ([5]; Flood, 62 g ai/ha) was 50, the “Crabgrass, Large plant response rating” value [6, 18] was 90 and the “Crabgrass, Large plant response rating” value [6, 19] was 100. The “Foxtail, Giant plant response rating” value [7, 18] was 90, the “Foxtail, Giant plant response rating” value [7, 19] was 100 and the “Pigweed plant response rating” value [8, 18] was 100. The “Pigweed plant response rating” value [8, 19] was 100, the “Barnyardgrass plant response rating” value [9, 18] was 80 and the “Barnyardgrass plant response rating” value [9, 19] was 100. For the same compound, the “Morningglory plant response rating” value [10, 18] was 90 and the “Morningglory plant response rating” value [10, 19] was 40.
`Cc1nn(-c2ccc(C(F)(F)F)cc2)nc1Oc1cncc(C(F)(F)F)c1` [Compound 37] was tested, and the “Plant response rating, Barnyardgrass” value [1, 11] was 10, the “Plant response rating, Barnyardgrass” value [1, 13] was 35 and the “Corn plant response rating” value (corn (Zea mays); [14]) was 10. For the same compound, the “Corn plant response rating” value (corn (Zea mays); [15]) was 20, the “Plant response rating, Corn” value (corn (Zea mays); [16]) was 0 and the “Plant response rating, Sedge, Umbrella” value [2, 11] was 0. For the same compound, the “Plant response rating, Sedge, Umbrella” value [2, 13] was 0, the “Plant response rating, Rice” value (rice (Oryza sativa); [11]) was 10 and the “Plant response rating, Rice” value (rice (Oryza sativa); [13]) was 20. The “Velvetleaf plant response rating” value [3, 14] was 20, the “Velvetleaf plant response rating” value [3, 15] was 50 and the “Plant response rating, Velvetleaf” value [3, 16] was 0. The “Plant response rating, Velvetleaf” value [3, 17] was 10, the “Wheat plant response rating” value [4, 14] was 0 and the “Wheat plant response rating” value [4, 15] was 10. For the same compound, the “Plant response rating, Wheat” value [4, 16] was 0, the “Plant response rating, Wheat” value [4, 17] was 0 and the “Plant response rating, Ducksalad” value [5, 11] was 0. For the same compound, the “Plant response rating, Ducksalad” value [5, 13] was 70, the “Crabgrass, Large plant response rating” value [6, 14] was 20 and the “Crabgrass, Large plant response rating” value [6, 15] was 70. For the same compound, the “Plant response rating, Crabgrass, Large” value [6, 16] was 90, the “Plant response rating, Crabgrass, Large” value [6, 17] was 100 and the “Foxtail, Giant plant response rating” value [7, 14] was 30. For the same compound, the “Foxtail, Giant plant response rating” value [7, 15] was 80, the “Plant response rating, Foxtail, Giant” value [7, 16] was 90 and the “Plant response rating, Foxtail, Giant” value [7, 17] was 100. The “Pigweed plant response rating” value [8, 14] was 80, the “Pigweed plant response rating” value [8, 15] was 100 and the “Plant response rating, Pigweed” value [8, 16] was 70. The “Plant response rating, Pigweed” value [8, 17] was 100, the “Barnyardgrass plant response rating” value [9, 14] was 10 and the “Barnyardgrass plant response rating” value [9, 15] was 20. The “Plant response rating, Barnyardgrass” value [9, 16] was 30, the “Plant response rating, Barnyardgrass” value [9, 17] was 90 and the “Morningglory plant response rating” value [10, 14] was 20. For the same compound, the “Morningglory plant response rating” value [10, 15] was 90, the “Plant response rating, Morningglory” value [10, 16] was 0 and the “Plant response rating, Morningglory” value [10, 17] was 20.
